Test results: patent US20250281433A1, “NOVEL DERIVATIVE COMPOUND HAVING BIPHENYL GROUP INTRODUCED INTO AMINO-ALKANOIC ACID AND ANTI-INFLAMMATORY COMPOSITION COMPRISING SAME” (AMTIXBIO CO., LTD., priority 2020, published 2025)

How the values were obtained:
[1] = tested on: IL-6 production in RAW264.7 cells; experiment: LPS-induced IL-6 production in RAW264.7 cells (ELISA); format: cell-based, mouse; settings: for Relative amount of IL-6 compared to LPS induction (%): Table 3, compounds at 8 μg/mL (FIG. 1), LPS alone = 100%; for avg / 1 well / 2 well / avg (%): Table 2; for avg / 1 well / 2 well: IL-6 production after LPS; for avg: average of wells; for 1 well: replicate well 1; for 2 well: replicate well 2; for avg (%): relative to LPS (100%)
Description: The inhibitory effect on induced IL-6 cytokine production was analyzed. RAW264.7 cells (obtained from the Korean Cell Line Bank) were seeded at a density of 5×10^5 cells/well in a 12-well plate and stabilized in a CO2 incubator at 37° C. with 5% carbon dioxide and saturated humidity. After 24 hours of incubation, the compounds of the present invention were prepared in DMEM at concentrations of 0 μg/mL or 8 μg/mL and pre-treated for 30 minutes. Next, lipopolysaccharide (LPS, Sigma-Aldrich, Cat No. L2887) was treated to a concentration of 1 μg/mL to induce an inflammatory response for 24 hours. Subsequently, mouse IL-6 ELISA kit (Labiskoma, Cat No. K0331230P) and mouse TNF-α ELISA kit (Labiskoma, Cat No. K0331186P) were used according to the manufacturer's instructions, and absorbance was measured. FK506 (FK-506 monohydrate, manufacturer: MilliporeSigma, product number: F4679, U.S.A) was used as a control substance.
After inducing inflammation as described in (1) and (2) above, the supernatant was collected, and the quantification of IL-6 in the supernatant was performed using the IL-6 ELISA kit (Mouse IL-6 ELISA Kit, pink-ONE, manufactured by Komabiotech, Product No. K0331230P) according to the manufacturer's instructions. Specifically, the amount of IL-6 in the supernatant was quantified according to the ELISA kit protocol, and the absorbance was measured at OD 450 nm using a microplate reader (Multiskan Sky, manufactured by Thermo Fisher Scientific). […] In Table 1 to Table 3, FIG. 1, and FIG. 2, the relative values of IL-6 generated after pretreatment with the compounds of the present invention were expressed as a percentage relative to the IL-6 production (100%) induced by LPS, TNF-α, or IFN-β treatment.

[2] = tested on: psoriasis symptoms induced by Aldara cream in BALB/c mice; experiment: Aldara cream-induced mouse psoriasis model: evaluation of scratching; format: in vivo; settings: 8th day; topical; Compound 51 1%, Betamethasone 0.05%; versus Veh
Description: (§1) After dissolving the test substance (Compound 51 of the present invention) using DMSO (Dimethyl sulfoxide, Sigma, Cat No. 472301), an appropriate concentration was prepared with PBS (HyClone, Cat No. SH30028.02). The transdermal test substance was prepared by dissolving the test substance in 100% ethanol (Medchem, Cat No. HY-13571). Betamethasone dipropionate (Sigma, Cat No. D1756, Lot No. BCBW7684), a positive control, was dissolved in DMSO, and PEG400 (Sigma, Cat. No. 06855) and 30% ethanol (Daejung, Cat. No. 4023-4100) were added to the mixture obtained above. The same vehicle was used for the negative control in the same way as the positive control specimen preparation.
(§2) BALB/c mice (purchased through JA BIO, 27 males, 8 weeks old) were acclimatized for one week. After the mice were anesthetized with isoflurane 3 days before the application of Aldara cream, the hair on the back (3×3 cm) was removed using a clipper. The remaining hair was completely removed by leaving the hair removal cream for 1 minute. The mice were left for 72 hours to heal the wounds. To induce psoriasis, Aldera Cream (5% Imiquimod, Dong-A ST) 62.5 mg was applied at the same time point (AM 10:00) once/day 7 times, and 150 μl of test substance or positive control was applied from the 4th day at the same time point (PM 14:00) for 4 days. […]

[3] = tested on: psoriasis-related cytokine genes IL-17A, IL-17F, IL-23A (p19), IL-12A (p35), IL-12B (p40), IL-1β; experiment: Aldara cream-induced mouse psoriasis model: qRT-PCR of dorsal skin; format: in vivo; settings: dorsal skin RNA, normalized to 18s rRNA; topical; Compound 51 1%, Betamethasone 0.05%; versus Veh
Description: as §1, §2

[4] = tested on: psoriasis symptoms induced by Aldara cream in BALB/c mice; experiment: Aldara cream-induced mouse psoriasis model: skin lesions / PASI score; format: in vivo; settings: topical 150 μl for 4 days from 4th day, Compound 51 1%, Betamethasone 0.05%, versus Veh; for skin lesions (pictures, visual): 8th day; for PASI Score: p<0.001
Description: as §1
BALB/c mice (purchased through JA BIO, 27 males, 8 weeks old) were acclimatized for one week. After the mice were anesthetized with isoflurane 3 days before the application of Aldara cream, the hair on the back (3×3 cm) was removed using a clipper. The remaining hair was completely removed by leaving the hair removal cream for 1 minute. The mice were left for 72 hours to heal the wounds. To induce psoriasis, Aldera Cream (5% Imiquimod, Dong-A ST) 62.5 mg was applied at the same time point (AM 10:00) once/day 7 times, and 150 μl of test substance or positive control was applied from the 4th day at the same time point (PM 14:00) for 4 days. The composition of each test group was as follows. a) Con: Normal+excipient application group: 8 animals; b) Veh: Aldara cream+excipient application group: 8 animals; c) Beta: Aldara+Betamethasone 0.05% applied group: 8 animals; and d) Compound 51 1%: Aldara+Compound 51 1% application group: 3 animals. The autopsy proceeded in a non-fasting state, and the dorsal skin was removed from each mouse, rapidly frozen in liquid nitrogen, and stored at −80° C. before for the subsequent experiments.
After taking pictures on the 0th, 4th, and 8th days to measure the skin index values, they were visually observed and recorded to measure the degree of skin lesions on the dorsal area. The condition of psoriasis skin lesions in each group was scored according to the evaluation index (erythema, skin thickness, dead skin cells) as None (0), Weak (1), Moderate (2), Severe (3), Very Severe (4) and set the score, and by summing up the scores of the three items, an evaluation score between a minimum of 0 and a maximum of 12 was calculated. […] After taking pictures in all groups on the 0th, 4th and 8th days, the evaluation indexes (erythema, skin thickness, and dead skin cells) of the psoriasis skin lesions in each group were graphed.

SMILES: CCCC(N)C(=O)NCCc1ccc(-c2ccc(F)c(F)c2)cc1.Cl (racemic) [Compound 82, (R)/(S)-2-amino-N-(2-(3′,4′-difluoro-[1,1′-biphenyl]-4-yl)ethyl)pentanamide hydrochloride]
- Relative amount of IL-6 compared to LPS induction (%) ([1]; LPS 1 μg/mL 24 h): 3%

SMILES: CCCC(C(=O)Nc1ccc(-c2ccc(Cl)c(Cl)c2)cc1)N(C)C (racemic) [Compound 36, (R)/(S)—N-(3′,4′-dichloro-[1,1′-biphenyl]-4-yl)-2-(dimethylamino)pentanamide]
- Relative amount of IL-6 compared to LPS induction (%) ([1]; LPS 1 μg/mL 24 h): 9%

SMILES: CCCC(C(=O)NCc1ccc(-c2ccc(Cl)c(Cl)c2)cc1)N(C)C (racemic) [Compound 53, (R)/(S)—N-((3′,4′-dichloro-[1,1′-biphenyl]-4-yl)methyl)-2-(dimethylamino)pentanamide]
- Relative amount of IL-6 compared to LPS induction (%) ([1]; LPS 1 μg/mL 24 h): 5%

SMILES: CCCCC(N)C(=O)NCc1ccc(-c2ccc(C(F)(F)F)cc2)cc1.Cl (racemic) [Compound 48, (R)/(S)-2-amino-N-((4′-(trifluoromethyl)-[1,1′-biphenyl]-4-yl)methyl)hexanamide hydrochloride]
- Relative amount of IL-6 compared to LPS induction (%) ([1]; LPS 1 μg/mL 24 h): 67%

SMILES: CCC(NC)C(=O)NCCc1ccc(-c2ccc(Cl)c(Cl)c2)cc1.Cl (racemic) [Compound 83, (R)/(S)—N-(2-(3′,4′-dichloro-[1,1′-biphenyl]-4-yl)ethyl)-2-(methylamino)butanamide hydrochloride]
- Relative amount of IL-6 compared to LPS induction (%) ([1]; LPS 1 μg/mL 24 h): 9%

SMILES: CCCC(NC)C(=O)NCc1ccc(-c2ccc(Cl)c(Cl)c2)cc1.Cl (racemic) [Compound 51, (R)/(S)—N-((3′,4′-dichloro-[1,1′-biphenyl]-4-yl)methyl)-2-(methylamino)pentanamide hydrochloride]
- pruritus (scratching counts, 30 minutes) [2]: tendency to decrease pruritus
- avg ([1]; compound at 2 μg/ml): 2615.50
- avg ([1]; compound at 4 μg/ml): 586.95
- 1 well ([1]; compound at 2 μg/ml): 2815.00
- 1 well ([1]; compound at 4 μg/ml): 669.30
- 2 well ([1]; compound at 2 μg/ml): 2416.00
- 2 well ([1]; compound at 4 μg/ml): 504.60
- avg (%) ([1]; compound at 2 μg/ml): 56.11%
- avg (%) ([1]; compound at 4 μg/ml): 12.59%
- psoriasis-related cytokine genes (IL-17A, IL-17F, IL-23A (p19), IL-12A (p35), IL-12B (p40), IL-1β) expression [3]: significantly reduced
- skin lesions (pictures, visual) [4]: visually improved
- PASI Score [4]: significantly decreased

SMILES: CCCC(N)C(=O)NCCc1ccc(-c2ccc(OC(F)(F)F)cc2)cc1.Cl (racemic) [Compound 80, (R)/(S)-2-amino-N-(2-(4′-(trifluoromethoxy)-[1,1′-biphenyl]-4-yl)ethyl)pentanamide hydrochloride]
- Relative amount of IL-6 compared to LPS induction (%) ([1]; LPS 1 μg/mL 24 h): 6%

SMILES: CCCC(N)C(=O)Nc1ccc(-c2ccc(OC(F)(F)F)cc2)cc1.Cl (racemic) [Compound 32, (R)/(S)-2-amino-N-(4′-(trifluoromethoxy)-[1,1′-biphenyl]-4-yl)pentanamide hydrochloride]
- Relative amount of IL-6 compared to LPS induction (%) ([1]; LPS 1 μg/mL 24 h): 16%

SMILES: CCCC(N)C(=O)NCc1ccc(-c2ccc(OC(F)(F)F)cc2)cc1.Cl (racemic) [Compound 49, (R)/(S)-2-amino-N-((4′-(trifluoromethoxy)-[1,1′-biphenyl]-4-yl)methyl)pentanamide hydrochloride]
- Relative amount of IL-6 compared to LPS induction (%) ([1]; LPS 1 μg/mL 24 h): 50%

SMILES: CCCC(N)C(=O)NCc1ccc(-c2ccc(C(F)(F)F)cc2)cc1.Cl (racemic) [Compound 47, (R)/(S)-2-amino-N-((4′-(trifluoromethyl)-[1,1′-biphenyl]-4-yl)methyl)pentanamide hydrochloride]
- Relative amount of IL-6 compared to LPS induction (%) ([1]; LPS 1 μg/mL 24 h): 12%

SMILES: CCCC(NC)C(=O)NCCc1ccc(-c2ccc(C(F)(F)F)cc2)cc1.Cl (racemic) [Compound 87, (R)/(S)-2-(methylamino)-N-(2-(4′-(trifluoromethyl)-[1,1′-biphenyl]-4-yl)ethyl)pentanamide hydrochloride]
- Relative amount of IL-6 compared to LPS induction (%) ([1]; LPS 1 μg/mL 24 h): 24%

SMILES: CCCC(NC)C(=O)NCc1ccc(-c2ccc(C(F)(F)F)cc2)cc1.Cl (racemic) [Compound 52, (R)/(S)-2-(methylamino)-N-((4′-(trifluoromethyl)-[1,1′-biphenyl]-4-yl)methyl)pentanamide hydrochloride]
- Relative amount of IL-6 compared to LPS induction (%) ([1]; LPS 1 μg/mL 24 h): 13%

SMILES: C=CC[C@@H]1/C=C(\C)C[C@H](C)C[C@H](OC)[C@H]2O[C@@](O)(C(=O)C(=O)N3CCCC[C@H]3C(=O)O[C@H](/C(C)=C/[C@@H]3CC[C@@H](O)[C@H](OC)C3)[C@H](C)[C@@H](O)CC1=O)[C@H](C)C[C@@H]2OC [FK506, FK-506 monohydrate, reference compound]
- IL-6 ([1]; Table 1, LPS 1 μg/mL 24 h, compound 77 at 8 μg/ml, FK506 concentration not given): 656.86 pg/mL
- IL-6 (%) ([1]; Table 1, relative to IL-6 production induced by LPS (100%), compound 77 at 8 μg/ml, FK506 concentration not given): 45.31%

SMILES: CCCCC(N)C(=O)NCc1ccc(-c2ccc(OC(F)(F)F)cc2)cc1.Cl (racemic) [Compound 50, (R)/(S)-2-amino-N-((4′-(trifluoromethoxy)-[1,1′-biphenyl]-4-yl)methyl)hexanamide hydrochloride]
- Relative amount of IL-6 compared to LPS induction (%) ([1]; LPS 1 μg/mL 24 h): 68%

SMILES: CCC(N)C(=O)NCCc1ccc(-c2ccc(C(F)(F)F)cc2)cc1.Cl (racemic) [Compound 76, (R)/(S)-2-amino-N-(2-(4′-(trifluoromethyl)-[1,1′-biphenyl]-4-yl)ethyl)butanamide hydrochloride]
- Relative amount of IL-6 compared to LPS induction (%) ([1]; LPS 1 μg/mL 24 h): 9.58%

SMILES: CCC(=O)OCC(=O)[C@@]1(OC(=O)CC)[C@@H](C)C[C@H]2[C@@H]3CCC4=CC(=O)C=C[C@]4(C)[C@@]3(F)[C@@H](O)C[C@@]21C [Beta, Betamethasone dipropionate, reference compound]
- pruritus (scratching counts, 30 minutes) [2]: significant decrease
- psoriasis-related cytokine genes (IL-17A, IL-17F, IL-23A (p19), IL-12A (p35), IL-12B (p40), IL-1β) expression [3]: significantly reduced
- skin lesions (pictures, visual) [4]: visually improved
- PASI Score [4]: significantly decreased

SMILES: CCCC(N)C(=O)NCc1ccc(-c2ccc(Cl)c(Cl)c2)cc1.Cl (racemic) [Compound 45, (R)/(S)-2-amino-N-((3′,4′-dichloro-[1,1′-biphenyl]-4-yl)methyl)pentanamide hydrochloride]
- Relative amount of IL-6 compared to LPS induction (%) ([1]; LPS 1 μg/mL 24 h): 3%
